Experimental data taken from patent US9371336B2, “Compounds for treating spinal muscular atrophy” (PTC Therapeutics Inc., priority 2012, dated 2016).

Columns and labels:
[1] = tested on: SMN2 minigene mRNA (SMN2-A minigene construct); assay: SMN2 minigene mRNA splicing RT-qPCR assay in cultured cells; format: cell-based, human; details: Homo sapiens, HEK293-H; HEK293H cells stably transfected with SMN2-A minigene, 24 hours, 7-point concentration data; concentration giving 1.5-fold SMN2 full length mRNA relative to vehicle-treated cells; read-out: EC1.5x for production of full length SMN2 mRNA
Experimental: The reverse transcription-quantitative PCR-based (RT-qPCR) assay is used to quantify the level of the full length SMN2 minigene mRNA containing SMN2 exon 7 in a HEK293H cell line stably transfected with said minigene and treated with a test compound.
HEK293H cells stably transfected with the SMN2-A minigene construct described above (10,000 cells/well) are seeded in 200 μL of cell culture medium (DMEM plus 10% FBS, with 200 μg/mL hygromycin) in 96-well flat-bottom plates and the plate is immediately swirled to ensure proper dispersal of cells, forming an even monolayer of cells. Cells are allowed to attach for at least 4-6 hours. Test compounds are serially diluted 3.16-fold in 100% DMSO to generate a 7-point concentration curve. A solution of test compound (1 μL, 200× in DMSO) is added to each cell-containing well and the plate is incubated for 24 hours in a cell culture incubator (37° C., 5% CO2, 100% relative humidity). Two replicates are prepared for each test compound concentration. The cells are then lysed in Cells-To-Ct lysis buffer and the lysate is stored at −80° C.
Primer SMN Forward A (SEQ ID NO. 1) hybridizes to a nucleotide sequence in exon 7 (nucleotide 22 to nucleotide 40), primer SMN Reverse A (SEQ ID NO. 2) hybridizes to a nucleotide sequence in the coding sequence of Firefly luciferase, SMN Probe A (SEQ ID NO. 3) hybridizes to a nucleotide sequence in exon 7 (nucleotide 50 to nucleotide 54) and exon 8 (nucleotide 1 to nucleotide 21). The combination of these three oligonucleotides detects only SMN1 or SMN2 minigenes (RT-qPCR) and will not detect endogenous SMN1 or SMN2 genes.
The SMN forward and reverse primers are used at final concentrations of 0.4 μM. The SMN probe is used at a final concentration of 0.15 μM. The GAPDH primers are used at final concentrations of 0.2 μM and the probe at 0.15 μM.
The SMN2-minigene GAPDH mix (15 μL total volume) is prepared by combining 7.5 μL of 2×RT-PCR buffer, 0.4 μL of 25×RT-PCR enzyme mix, 0.75 μL of 20×GAPDH primer-probe mix, 4.0075 μL of water, 2 μL of 10-fold diluted cell lysate, 0.06 μL of 100 μM SMN forward primer, 0.06 μL of 100 μM SMN reverse primer, and 0.225 μL of 100 μM SMN probe.
PCR is carried out at the following temperatures for the indicated time: Step 1: 48° C. (15 min); Step 2: 95° C. (10 min); Step 3: 95° C. (15 sec); Step 4: 60° C. (1 min); then repeat Steps 3 and 4 for a total of 40 cycles.
Each reaction mixture contains both SMN2-A minigene and GAPDH primers/probe sets (multiplex design), allowing simultaneous measurement of the levels of two transcripts.
Two SMN spliced products are generated from the SMN2 minigene. The first spliced product containing exon 7, corresponding to SMN2 full length mRNA, is referred to herein using the term “SMN2 minigene FL.” The second spliced product lacking exon 7 is referred to herein using the term “SMN2 minigene Δ7.”
The increase of SMN2 minigene FL mRNA relative to that in cells treated with vehicle control is determined from real-time PCR data using a modified ΔΔCt method (as described in Livak and Schmittgen, Methods, 2001, 25:402-8). The amplification efficiency (E) is calculated from the slope of the amplification curve for SMN2 minigene FL and GAPDH individually. The abundances of SMN2 minigene FL and GAPDH are then calculated as (1+E)^−Ct, where Ct is the threshold value for each amplicon. The abundance of SMN2 minigene FL is normalized to GAPDH abundance. The normalized SMN2 minigene FL abundance from test compound-treated samples is then divided by normalized SMN2 minigene FL abundance from vehicle-treated cells to determine the level of SMN2 FL mRNA relative to vehicle control.

Smn protein = Smn protein assay (HTRF) in cultured cells (SMA patient fibroblasts GM03813); format: cell-based, human; details: 48 hours; for EC1.5x for Smn protein expression: SMA patient fibroblast cells (GM03813), HTRF, 7-point concentration data, concentration producing 1.5 times Smn protein vs DMSO vehicle control; for maximum fold (Fold) increase of Smn protein: SMA patient fibroblast cells, 7-point concentration curve, relative to vehicle control
Experimental: The Smn HTRF (homogeneous time resolved fluorescence) assay is used to quantify the level of Smn protein in SMA patient fibroblast cells treated with test compounds.
Cells are thawed and cultured in DMEM-10% FBS for 72 hours. Cells are trypsinized, counted and re-suspended to a concentration of 25,000 cells/mL in DMEM-10% FBS. The cell suspension is plated at 5,000 cells per well in a 96 well microtiter plate and incubated for 3 to 5 hours. […] Test compounds are serially diluted 3.16-fold in 100% DMSO to generate a 7-point concentration curve. 1 μL of test compound solution is transferred to cell-containing wells and cells are incubated for 48 hours in a cell culture incubator (37° C., 5% CO2, 100% relative humidity). Triplicate samples are set up for each test compound concentration. After 48 hours, the supernatant is removed from the wells and 25 μL of the RIPA lysis buffer, containing protease inhibitors, is added to the wells and incubated with shaking at room temperature for 1 hour. 25 μL of the diluent is added and then 35 μL of the resulting lysate is transferred to a 384-well plate, where each well contains 5 μL of the antibody solution (1:100 dilution of anti-SMN d2 and anti-SMN kryptate in SMN reconstitution buffer). The plate is centrifuged for 1 minute to bring the solution to the bottom of the wells, then incubated overnight at room temperature. Fluorescence for each well of the plate at 665 nm and 620 nm is measured on an EnVision multilabel plate reader (Perkin-Elmer).
The normalized fluorescence signal is calculated for each sample, Blank and vehicle control well by dividing the signal at 665 nm by the signal at 620 nm. Normalizing the signal accounts for possible fluorescence quenching due to the matrix effect of the lysate. The ΔF value (a measurement of Smn protein abundance as a percent value) for each sample well is calculated by subtracting the normalized average fluorescence for the Blank control wells from the normalized fluorescence for each sample well, then dividing this difference by the normalized average fluorescence for the Blank control wells and multiplying the resulting value by 100. The ΔF value for each sample well represents the Smn protein abundance from test compound-treated samples. The ΔF value for each sample well is divided by the ΔF value for the vehicle control wells to calculate the fold increase in Smn protein abundance relative to the vehicle control.

SMILES: Cc1ccn2cc(-c3cc4ccc(N5CCNC[C@@H]5C)nc4oc3=O)nc2c1 [Cpd 59, 3-(7-methylimidazo[1,2-a]pyridin-2-yl)-7-[(2S)-2-methylpiperazin-1-yl]-2H-pyrano[2,3-b]pyridin-2-one]
- EC (1.5-fold) [1]: ≤ 0.1 µM
- EC1.5x for Smn protein expression (Smn protein): **** (an EC1.5×≦0.3 μM is indicated by four stars (****))
- maximum fold (Fold) increase of Smn protein (Smn protein): **** (a fold increase between >1.5 and ≦1.65 is indicated by four stars (****))

SMILES: C[C@H]1CN(c2ccc3cc(-c4cn5ccccc5n4)c(=O)oc3n2)CCN1.Cl [Cpd 79, 3-(imidazo[1,2-a]pyridin-2-yl)-7-[(3S)-3-methylpiperazin-1-yl]-2H-pyrano[2,3-b]pyridin-2-one hydrochloride]
- EC (1.5-fold) [1]: ≤ 0.1 µM
- EC1.5x for Smn protein expression (Smn protein): **** (an EC1.5×≦0.3 μM is indicated by four stars (****))
- maximum fold (Fold) increase of Smn protein (Smn protein): ***** (a fold increase >1.65 is indicated by five stars (*****))

SMILES: Cc1ccn2cc(-c3cc4ccc(N5C[C@H](C)NC[C@H]5C)nc4oc3=O)nc2c1 [Cpd 88, 7-[(2R,5S)-2,5-dimethylpiperazin-1-yl]-3-(7-methylimidazo[1,2-a]pyridin-2-yl)-2H-pyrano[2,3-b]pyridin-2-one]
- EC (1.5-fold) [1]: ≤ 0.1 µM
- EC1.5x for Smn protein expression (Smn protein): **** (an EC1.5×≦0.3 μM is indicated by four stars (****))
- maximum fold (Fold) increase of Smn protein (Smn protein): **** (a fold increase between >1.5 and ≦1.65 is indicated by four stars (****))

SMILES: Cc1cn2cc(-c3cc4ccc(N5CCN[C@@H](C)C5)nc4oc3=O)nc2c(C)n1 [Cpd 146, 3-(6,8-dimethylimidazo[1,2-a]pyrazin-2-yl)-7-[(3S)-3-methylpiperazin-1-yl]-2H-pyrano[2,3-b]pyridin-2-one]
- EC (1.5-fold) [1]: ≤ 0.1 µM
- EC1.5x for Smn protein expression (Smn protein): **** (an EC1.5×≦0.3 μM is indicated by four stars (****))
- maximum fold (Fold) increase of Smn protein (Smn protein): **** (a fold increase between >1.5 and ≦1.65 is indicated by four stars (****))

SMILES: CC(C)(C)OC(=O)N1CCN(c2cc3oc(=O)c(-c4nc5c(Cl)cccc5s4)cc3cn2)CC1 [Cpd 8, tert-butyl 4-[3-(4-chloro-1,3-benzothiazol-2-yl)-2-oxo-2H-pyrano[3,2-c]pyridin-7-yl]piperazine-1-carboxylate]
- EC (1.5-fold) [1]: 3 to 30 µM
- EC1.5x for Smn protein expression (Smn protein): * (An EC1.5× for Smn protein expression between >3 μM and ≦10 μM is indicated by one star (*))
- maximum fold (Fold) increase of Smn protein (Smn protein): ***** (a fold increase >1.65 is indicated by five stars (*****))

SMILES: Cc1cc(Cl)c2nc(-c3cc4cnc(N5CCNCC5)cc4oc3=O)cn2c1.Cl [Cpd 35, 3-(8-chloro-6-methylimidazo[1,2-a]pyridin-2-yl)-7-(piperazin-1-yl)-2H-pyrano[3,2-c]pyridin-2-one hydrochloride]
- EC (1.5-fold) [1]: 3 to 30 µM
- maximum fold (Fold) increase of Smn protein (Smn protein): ** (a fold increase between >1.2 and ≦1.35 is indicated by two stars (**))

SMILES: Cc1ccc2nc(-c3cc4ccc(N5CCN[C@H](C)C5)nc4oc3=O)cn2c1 [Cpd 73, 3-(6-methylimidazo[1,2-a]pyridin-2-yl)-7-[(3R)-3-methylpiperazin-1-yl]-2H-pyrano[2,3-b]pyridin-2-one]
- EC (1.5-fold) [1]: 0.1 to 0.3 µM
- EC1.5x for Smn protein expression (Smn protein): ** (an EC1.5× between >1 and ≦3 μM is indicated by two stars (**))
- maximum fold (Fold) increase of Smn protein (Smn protein): *** (a fold increase between >1.35 and ≦1.5 is indicated by three stars (***))

SMILES: O=c1oc2nc(N3CCN(CCCl)CC3)ccc2cc1-c1nc2ccccc2s1 [Cpd 4, 3-(1,3-benzothiazol-2-yl)-7-[4-(2-chloroethyl)piperazin-1-yl]-2H-pyrano[2,3-b]pyridin-2-one]
- EC (1.5-fold) [1]: 1 to 3 µM
- maximum fold (Fold) increase of Smn protein (Smn protein): ** (a fold increase between >1.2 and ≦1.35 is indicated by two stars (**))

SMILES: Cc1ccc2nc(-c3cc4ccc(N5C[C@@H]6C[C@H]5CN6)nc4oc3=O)cn2c1 [Cpd 124, 7-[(1S,4S)-2,5-diazabicyclo[2.2.1]hept-2-yl]-3-(6-methylimidazo[1,2-a]pyridin-2-yl)-2H-pyrano[2,3-b]pyridin-2-one]
- EC (1.5-fold) [1]: 0.1 to 0.3 µM
- EC1.5x for Smn protein expression (Smn protein): *** (an EC1.5× between >0.3 μM and ≦1 μM is indicated by three stars (***))
- maximum fold (Fold) increase of Smn protein (Smn protein): **** (a fold increase between >1.5 and ≦1.65 is indicated by four stars (****))

SMILES: Cc1ccn2nc(-c3cc4ccc(N5CCNCC5)nc4oc3=O)cc2c1.Cl [Cpd 43, 3-(5-methylpyrazolo[1,5-a]pyridin-2-yl)-7-(piperazin-1-yl)-2H-pyrano[2,3-b]pyridin-2-one hydrochloride]
- EC (1.5-fold) [1]: 0.1 to 0.3 µM
- EC1.5x for Smn protein expression (Smn protein): **** (an EC1.5×≦0.3 μM is indicated by four stars (****))
- maximum fold (Fold) increase of Smn protein (Smn protein): **** (a fold increase between >1.5 and ≦1.65 is indicated by four stars (****))

SMILES: C[C@H]1CN(c2ccc3cc(-c4cn5ccsc5n4)c(=O)oc3n2)CCN1.Cl [Cpd 83, 3-(imidazo[2,1-b][1,3]thiazol-6-yl)-7-[(3S)-3-methylpiperazin-1-yl]-2H-pyrano[2,3-b]pyridin-2-one hydrochloride]
- EC (1.5-fold) [1]: ≤ 0.1 µM
- EC1.5x for Smn protein expression (Smn protein): **** (an EC1.5×≦0.3 μM is indicated by four stars (****))
- maximum fold (Fold) increase of Smn protein (Smn protein): **** (a fold increase between >1.5 and ≦1.65 is indicated by four stars (****))
